Data from patent US6642392B1 (priority 1997, dated 2003).

Tests used:
Assay type in all cases: in vivo
Phytophthora infestans = conditions: for Test D disease control rating: tomato late blight, 100 = 100% disease control, 0 = no control, unmarked entries (standard test concentration); for Test D disease control rating (100 = 100% disease control, 0 = no disease control): tomato seedlings sprayed to run-off, inoculated the following day, rating relative to controls, unmarked compounds (standard test rate)
[1] = test system: Eiysiphe graminis f. sp. tritici; assay: Test A: wheat powdery mildew, preventive spray on wheat seedlings; conditions: for Test A disease control rating: wheat powdery mildew, 100 = 100% disease control, 0 = no control relative to controls, unmarked entries (standard test concentration); for Test A disease control rating (100 = 100% disease control, 0 = no disease control): wheat seedlings sprayed to run-off, inoculated the following day, rating relative to controls, unmarked compounds (standard test rate)
Outline: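 Preventive test: seedlings inoculated with powdery mildew spores one day after run-off spraying of a suspension. Ratings after 7 days in a 20° C growth chamber express percent disease control versus controls.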

Pyricularia oryzae = conditions: for Test C disease control rating: rice blast, 100 = 100% disease control, 0 = no control, unmarked entries (standard test concentration); for Test C disease control rating (100 = 100% disease control, 0 = no disease control): rice seedlings sprayed to run-off, inoculated the following day, rating relative to controls, unmarked compounds (standard test rate)
Puccinia recondita = assay: Test B: wheat leaf rust, preventive spray on wheat seedlings; conditions: for Test B disease control rating: wheat leaf rust, 100 = 100% disease control, 0 = no control, unmarked entries (standard test concentration); for Test B disease control rating (100 = 100% disease control, 0 = no disease control): wheat seedlings sprayed to run-off, inoculated the following day, rating relative to controls, unmarked compounds (standard test rate)
Outline: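 Preventive test: P. recondita spores were applied one day after a run-off spray of compound suspension on wheat seedlings. Plants had 24 h at 20 °C in saturated air plus 6 days in a 20 °C growth chamber. Scoring is % disease control (100 = full) relative to controls.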

Botrytis cinerea = assay: Test E: gray mold, preventive spray on cucumber seedlings; conditions: for Test E disease control rating: gray mold on cucumber, 100 = 100% disease control, 0 = no control, unmarked entries (standard test concentration); for Test E disease control rating (100 = 100% disease control, 0 = no disease control): cucumber seedlings sprayed to run-off, inoculated the following day, rating relative to controls, unmarked compounds (standard test rate)
Outline: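 Preventive spray on cucumber seedlings used a suspension (3% acetone, 250 ppm Trem 014), applied to run-off one day before inoculation with Botrytis cinerea spores. Plants were held 48 h at 20° C in saturated air, then 5 days at 20° C. Percent disease control was scored relative to untreated plants.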

| Compound | Test D disease control rating (Phytophthora infestans) | Test A disease control rating [1] | Test C disease control rating (Pyricularia oryzae) | Test B disease control rating (Puccinia recondita) | Test E disease control rating (Botrytis cinerea) | Test D disease control rating (100 = 100% disease control, 0 = no disease control) (Phytophthora infestans) | Test A disease control rating (100 = 100% disease control, 0 = no disease control) [1] | Test C disease control rating (100 = 100% disease control, 0 = no disease control) (Pyricularia oryzae) | Test B disease control rating (100 = 100% disease control, 0 = no disease control) (Puccinia recondita) | Test E disease control rating (100 = 100% disease control, 0 = no disease control) (Botrytis cinerea) |
| --- | --- | --- | --- | --- | --- | --- | --- | --- | --- | --- |
| CCCc1cccc(C#N)c1OCC(C)NC(=O)C(C#N)C(C)(C)C (mixture of isomers) [compound 205] | 0% | 0% | 74% | 68% | 0% | – | – | – | – | – |
| CC(C)C(C#N)C(=O)NC(C)C(Oc1cc(F)ccc1C#N)c1ccccc1 (mixture of isomers) [compound 289] | – | – | – | – | – | 45% | 0% | 90% | 0% | 0% |
| CC(C=Cc1cc(F)ccc1F)NC(=O)C(C#N)C(C)(C)C (single isomer, unassigned) [229a] | – | – | – | – | – | 0% | 0% | 100% | 0% | 55% |
| C[C@H](COc1cc(F)ccc1Br)NC(=O)C(C#N)C(C)(C)C (single isomer, unassigned) [166a] | 76% | 0% | 99% | 0% | 58% | – | – | – | – | – |
| CC(COc1c(F)ccc(F)c1C#N)NC(=O)C(C#N)C(C)C(C)(C)C (mixture of isomers) [compound 279] | – | – | – | – | – | 0% | 56% | 0% | 0% | 0% |
| CCC1(C(=O)NC(C)COc2c(F)ccc(F)c2F)C(C)C1(Cl)Cl (stereo not drawn) [compound 233] | – | – | – | – | – | 9% | 62% | 94% | 0% | 6% |
| CCC1(C(=O)NC(C)COc2c(C)cccc2C#N)C(C)C1(Cl)Cl (mixture of isomers) [compound 259] | – | – | – | – | – | 0% | 84% | 91% | 0% | 48% |
| CCC1(C(=O)NC(C)COc2ccc(C(C)(C)C)cc2)C(C)C1(Cl)Cl (stereo not drawn) [compound 241] | – | – | – | – | – | 74% | 38% | 74% | 0% | 0% |
| CCC1(C(=O)NC(C)COc2c(C#N)cccc2C(F)(F)F)C(C)C1(Cl)Cl (mixture of isomers) [compound 134] | 30% | 0% | 0% | 0% | 0% | – | – | – | – | – |
| CCC1(C(=O)NC(C)COc2cc(F)c(F)cc2F)C(C)C1(Cl)Cl (stereo not drawn) [compound 236] | – | – | – | – | – | 0% | 77% | 97% | 0% | 0% |
| CCC1(C(=O)NCC(C)=Cc2ccccc2)C(C)C1(Cl)Cl (stereo not drawn) [compound 265] | – | – | – | – | – | 96% | 77% | 91% | 0% | 0% |
| CCC(C#N)C(=O)N[C@H](C)[C@H](Oc1cc(F)ccc1F)c1ccccc1 (stereo partly drawn) [compound 293] | – | – | – | – | – | 23% | 0% | 100% | 0% | 0% |
| C[C@H](COc1cc(F)ccc1F)NC(=O)C(C#N)C(C)(C)C=CF (single isomer, unassigned) [221b] | – | – | – | – | – | 41% | 62% | 100% | 68% | 0% |
| CC(COc1ccccc1C(C)(C)C)NC(=O)C(C#N)C(C)(C)C (mixture of isomers) [compound 23] | 48% | 0% | 97% | 0% | 0% | – | – | – | – | – |
| C=CC(C)(C)C(C#N)C(=O)NC(C)COc1cc(F)ccc1OC(F)F (mixture of isomers) [compound 294] | – | – | – | – | – | 24% | 0% | 99% | 0% | 0% |
| C[C@H](COc1cc(F)c(Cl)cc1F)NC(=O)C(C#N)C(C)(C)C (single isomer, unassigned) [173b] | 91% | 0% | 90% | 0% | 0% | – | – | – | – | – |
| C[C@H](COc1ccc(Cl)c(Cl)c1)NC(=O)C(C#N)C(C)(C)C (single isomer, unassigned) [181a] | 56% | 0% | 86% | 0% | 69% | – | – | – | – | – |
| Cc1cccc(C#N)c1OCC(C)NC(=O)C(C#N)C(C)(C)C (mixture of isomers) [compound 209] | 0% | 0% | 86% | 0% | 0% | – | – | – | – | – |
| CC(COc1cc(Cl)ccc1C#N)NC(=O)C(C#N)C(C)(C)C (mixture of isomers) [compound 43] | 66% | 0% | 86% | 0% | 0% | – | – | – | – | – |
| C#CC(C)(C)C(C#N)C(=O)NC(C)COc1cc(F)ccc1OC(F)F (mixture of isomers) [compound 295] | – | – | – | – | – | 0% | 0% | 100% | 0% | 0% |
| C[C@H](COc1ccccc1C#N)NC(=O)C(C#N)C(C)(C)C (single isomer, unassigned) [13b] | 4% | 0% | 86% | 0% | 83% | – | – | – | – | – |
